Source: publication PMC10771296, “Plectasin: from evolution to truncation, expression, and better druggability” (Frontiers in Microbiology, 2023)
≈ marks a conversion by molar mass, not a printed value. Entries after “also recorded” stand apart in the source; their conditions may differ. Where a SMILES comes first, the peptide text is derived from it. Bridges are numbered along the chain shown (N, C = ends).

Legend:
P. aeruginsoa CICC21630 = test: MIC, micro broth dilution; type: cell-based; conditions: 1 × 10^5 CFU/mL, repeated thrice
Protocol: (§1) The minimum inhibitory concentration (MIC) of the peptides was assayed using the micro broth dilution method, which is an important indicator of the antibacterial activity of the AMPs ([Liu et al., 2021]). […] The MIC was defined as the lowest concentration of ones at which no visible bacterial growth was observed. All the assays were repeated thrice.

E. coli ATCC25922 = test: MIC, micro broth dilution; type: cell-based; conditions: 1 × 10^5 CFU/mL, repeated thrice
Protocol: as §1

Shigella CMCC3926 = test: MIC, micro broth dilution; type: cell-based; conditions: 1 × 10^5 CFU/mL, repeated thrice
Protocol: as §1

E. coli O157 = test: MIC, micro broth dilution; type: cell-based; conditions: 1 × 10^5 CFU/mL, repeated thrice
Protocol: as §1

S. enteriditis CVCC3377 = test: MIC, micro broth dilution; type: cell-based; conditions: 1 × 10^5 CFU/mL, repeated thrice
Protocol: as §1

S. epidermidis ATCC35984 = test: MIC/MBC, micro broth dilution; type: cell-based
Protocol: as §1

S. epidermidis ATCC12228 = test: MIC/MBC, micro broth dilution; type: cell-based
Protocol: as §1

S. dysgalactiae CVCC3938 = test: MIC/MBC, micro broth dilution; type: cell-based
Protocol: as §1

[1] = test system: S. agalactiae CAU-FRI-2022-01; test: MIC/MBC, micro broth dilution; type: cell-based
Protocol: as §1

S. agalactiae ATCC13813 = test: MIC/MBC, micro broth dilution; type: cell-based
Protocol: as §1

S. aureus ATCC43300 [2] = test: Post-antibiotic effect; type: cell-based, Staphylococcus aureus; conditions: 2 h exposure, 1 × 10^8 CFU/mL, then diluted 1,000 times
Protocol: They were incubated at 37°C and 250 rpm, sampled, and coated on MHA plates for colony counting every hour. Phosphate-buffered saline (PBS) was used as a negative control, and vancomycin was used as a positive control. The calculation formula for the Post-antibiotic effect (PAE) was based on previous study ([Wu et al., 2022]).

mouse erythrocytes = test: Hemolysis; type: cell-based; conditions: 8% mouse erythrocyte suspension, 37°C
Protocol: The hemolytic properties of the peptides were evaluated by measuring the amount of hemoglobin released from fresh mouse erythrocytes ([Yang et al., 2019]). Blood was collected from mice in sodium heparin anticoagulation tubes, and the erythrocytes were washed three or more times with 0.9% saline to obtain an 8% erythrocyte suspension. The erythrocyte suspension was mixed with an equal volume of Ple-AB at concentrations of 0.5–256 μg/mL, incubated at 37°C, and the absorbance values were measured at 540 nm. PBS and 0.1% Triton X-100 were used as the blank (A0) and positive controls (A100), respectively. Hemolysis (%) = [(A – A0)/(A100 – A0)] × 100, and three replicates were conducted for each case.

S. aureus ATCC43300 [3] = test: Time-kill curve (bacterial kinetics in vitro); type: cell-based, Staphylococcus aureus; conditions: 1 × 10^5 CFU/mL, 37°C, 250 rpm, colony counting
Protocol: The bactericidal efficiency of Ple-AB was evaluated by plotting a time-kill curve ([Zheng et al., 2021]). Single colonies of the S. aureus ATCC43300 were picked for overnight activation, and 1% were transferred and incubated at 37°C until the logarithmic growth phase. […] Samples of 100 uL of bacteria were taken at 0, 0.5, 1, 2, 4, 6, 8, 10, 12, and 24 h, diluted, and coated to count the number of single colonies and plot the time-killing curve.

S. aureus ATCC 43300 = test: Inhibition zone screening of expression supernatants; type: cell-based, Staphylococcus aureus; conditions: induced supernatant of P. pastoris X-33 transformants, 48-well plates, 120 h
Description: The recombinant expression vector was constructed by ligating the designed and optimized sequence to the pPICZαA inducible expression vector, relying on the preference of the codon of P. pastoris. The linearized plasmid was transferred into P. pastoris X-33 for expression and the resulting product was verified for activity using an inhibition zone assay (against S. aureus ATCC 43300) before the active peptide was expressed at a high density in a 5-L fermenter ([Mao et al., 2015]). The supernatant was purified using the AKTA Express system. The fermentation supernatant was collected by centrifugation (5,000 rmp, 30 min), filtered with micro-filtration membranes ([…]). According to the isoelectric point of the target product, the corresponding A (50 mM sodium phosphate buffer, pH 6.7) and B (50 mM sodium phosphate buffer, 600 mM NaCl, pH 6.7) buffers were configured and purified by HiPrep SP FF cation exchange column (GE Healthcare). The protein samples were eluted by increasing the NaCl concentration in a stepwise manner, and the corresponding elution peak was collected. The purified product was verified using tricine-sodium dodecyl sulfate-polyacrylamide gel electrophoresis (Tricine-SDS-PAGE) and matrix-assisted laser desorption/ionization–time-of-flight mass spectrometry (MALDITOF MS) ([Zhang et al., 2014]).
A total of 15 recombinant plasmids were constructed. […]

ICR mice = test: In vivo safety: body weight and HE histology; conditions: 10 mg/kg i.p. for six consecutive days
Protocol: Eight 6-week-old ICR mice were randomly divided into two groups and injected intraperitoneally with Ple-AB (10 mg/kg, body weight) and saline for six consecutive days. […] They were weighed daily, and blood was collected on the 7th day for hematological and biochemical analyses. Simultaneously, the heart, liver, spleen, lungs, and kidneys were collected for tissue fixation and hematoxylin–eosin (HE) staining to observe any pathological changes ([Shishkina et al., 2023]).

[4] = micro broth dilution, 1 × 10^5 CFU/mL, repeated thrice

## CC[C@H](C)[C@@H]1NC(=O)[C@H](CO)NC(=O)[C@H](CCCCN)NC(=O)[C@@H]2CSSC[C@@H](C(=O)N[C@@H](Cc3ccc(O)cc3)C(=O)O)NC(=O)[C@H](CCCCN)NC(=O)[C@@H]3CSSC[C@H](NC(=O)[C@H](CCC(N)=O)NC(=O)[C@H](CCSC)NC(=O)[C@H](CCC(=O)O)NC(=O)[C@H](CC(=O)O)NC(=O)[C@H](Cc4c[nH]c5ccccc45)NC(=O)[C@@H]4CCCN4C(=O)[C@@H](NC(=O)CNC(=O)[C@H](Cc4ccccc4)NC(=O)CN)CSSC[C@H](NC(=O)[C@H](Cc4ccc(O)cc4)NC(=O)CNC(=O)CNC(=O)[C@H](CCCCN)NC(=O)[C@H](Cc4ccc(O)cc4)NC(=O)CNC(=O)[C@H](CCCCN)NC1=O)C(=O)N[C@@H](C)C(=O)N[C@@H](CCCCN)C(=O)NCC(=O)NCC(=O)N[C@@H](Cc1ccccc1)C(=O)N[C@@H](C(C)C)C(=O)N3)C(=O)N[C@@H](Cc1c[nH]cn1)C(=O)N[C@@H](CC(N)=O)C(=O)N[C@@H](Cc1c[nH]cn1)C(=O)N2 [Ple-AB] (H-GFGCPWDEMQCHNHCKSIKGYKGGYCAKGGFVCKCY-OH; disulfide 4-26, 11-33, 15-35; N-terminus and C-terminus assumed)
P. aeruginsoa CICC21630
  MIC: >128 µg/mL
E. coli ATCC25922
  MIC: >128 µg/mL
Shigella CMCC3926
  MIC: >128 µg/mL
E. coli O157
  MIC: >128 µg/mL
S. enteriditis CVCC3377
  MIC: >128 µg/mL
S. epidermidis ATCC35984; S. epidermidis ATCC35984
  MBC: 8 µg/mL (≈ 2 µM)
S. epidermidis ATCC35984; [4]
  MIC: 4 µg/mL (≈ 1 µM)
S. epidermidis ATCC12228; S. epidermidis ATCC12228
  MBC: 8 µg/mL (≈ 2 µM)
S. epidermidis ATCC12228; [4]
  MIC: 2 µg/mL (≈ 0.5 µM)
S. dysgalactiae CVCC3938; S. dysgalactiae CVCC3938
  MBC: 4 µg/mL (≈ 1 µM)
S. dysgalactiae CVCC3938; [4]
  MIC: 4 µg/mL (≈ 1 µM)
[1]; S. agalactiae CAU-FRI-2022-01
  MBC: 32 µg/mL (≈ 8 µM)
[1]; bovine mastitis isolate, micro broth dilution, 1 × 10^5 CFU/mL, repeated thrice
  MIC: 4 µg/mL (≈ 1 µM)
S. agalactiae ATCC13813; S. agalactiae ATCC13813
  MBC: 4 µg/mL (≈ 1 µM)
S. agalactiae ATCC13813; [4]
  MIC: 4 µg/mL (≈ 1 µM)
S. aureus ATCC43300 [2]; 1× MIC
  PAE (post-antibiotic effect): 1.15 h
S. aureus ATCC43300 [2]; 2× MIC
  PAE (post-antibiotic effect): 1.18 h
S. aureus ATCC43300 [2]; 4× MIC
  PAE (post-antibiotic effect): 2.25 h
Mouse erythrocytes; all concentrations 0.5–256 μg/mL, A540, three replicates
  Hemolytic rate: less than 2%
Mouse erythrocytes; highest concentration, 256 μg/mL, A540
  Hemolytic rate: 1.07%
S. aureus ATCC43300 [3]; 1× MIC
  Time to kill all the strains: ≤ 4 h
S. aureus ATCC43300 [3]; 2× MIC
  Time to kill all the strains: ≤ 4 h
S. aureus ATCC43300 [3]; 4× MIC
  Time to 99% bactericidal activity: ≤ 2 h
S. aureus ATCC 43300
  Antibacterial activity in inhibition circle screening: better antibacterial activity; also recorded: normal or higher activity
ICR mice; one week after injection, vs saline
  Histological morphology of heart, liver, spleen, lungs, kidneys (HE staining): no differences in histological morphology
ICR mice; weighed daily
  Body weight change: slight tendency to lose weight on the second day after the injection
